US20250339409A1, “USES OF PAN BET INHIBITORS” (VYNE THERAPEUTICS INC., priority 2021, published 2025)
“And” between values parts separate entries of the source, which are not always exact repeats. Equal entries are not always repeated. Marks after values point to notes of the source that are not given here.

Test system: anti collagen antibodies induced arthritis (ACAIA)
Experiment: Anti collagen antibodies induced arthritis (ACAIA) in mice, intra-articular treatment: paw thickness, arthritis clinical score, body weight;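 further: mouse arthritis induced by IV anti-collagen mAb on day 0 plus IP LPS on day 4, with body weight, caliper paw thickness and 0-4 paw score tracked against a day 0 baseline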
Conditions: for Clinical score of treated leg (Avg.) / Paw thickness Avg. Delta untreated -treated / Paw thickness of treated leg (Avg.) / Paw thickness of untreated leg (Avg.) / Percent change of weight per day (Av) / Percent change of weight per day (individual animal) / Δ clinical score untreated -treated, Avg. Delta: 10 mg/kg IA (Group 2)
[1] = BETi1 0.01 mg/kg IA (Group 5), Av
[2] = BETi1 0.01 mg/kg IA (Group 5), individual animals, 0.01 mg/kg
[3] = BETi1 0.1 mg/kg IA (Group 4), Av

For `Cn1cc(-c2cccc(O)c2Oc2ccccc2)c2cc[nH]c2c1=O` [BETi1], the “Clinical score of treated leg (Avg.)” value (Baseline) was 0.00 points, the “Paw thickness Avg. Delta untreated -treated” value (Baseline) was −0.05 mm and the “Paw thickness of treated leg (Avg.)” value (Baseline) was 2.12 mm. The “Paw thickness of untreated leg (Avg.)” value (Baseline) was 2.07 mm, the “Percent change of weight per day (Av)” value (Baseline) was 100.00% and the “Percent change of weight per day (individual animal)” value (Baseline) was 100%. For the same molecule, the “Δ clinical score untreated -treated, Avg. Delta” value (Baseline) was 0.00 points, the “Clinical score of treated leg (Avg.)” value (Day 3) was 0.00 points and the “Paw thickness Avg. Delta untreated -treated” value (Day 3) was −0.01 mm. The “Paw thickness of treated leg (Avg.)” value (Day 3) was 2.16 mm, the “Paw thickness of untreated leg (Avg.)” value (Day 3) was 2.15 mm and the “Percent change of weight per day (Av)” value (Day 3) was 100.21%. The “Percent change of weight per day (individual animal)” value (Day 3) was 99.5% and 99.54% and 102.4038% and 101.3825% and 100.4673% and 98.1982% and 100%, the “Δ clinical score untreated -treated, Avg. Delta” value (Day 3) was 0.00 points and the “Clinical score of treated leg (Avg.)” value (Day 4) was 0.00 points. For the same molecule, the “Paw thickness Avg. Delta untreated -treated” value (Day 4) was −0.04 mm, the “Paw thickness of treated leg (Avg.)” value (Day 4) was 2.24 mm and the “Paw thickness of untreated leg (Avg.)” value (Day 4) was 2.20 mm. For the same molecule, the “Percent change of weight per day (Av)” value (Day 4) was 100.95%, the “Percent change of weight per day (individual animal)” value (Day 4) was 100% and 99.07% and 102.8846% and 103.2258% and 100.9346% and 98.65% and 101.8779% and the “Δ clinical score untreated -treated, Avg. Delta” value (Day 4) was 0.00 points. The “Clinical score of treated leg (Avg.)” value (Day 5) was 0.00 points, the “Paw thickness Avg. Delta untreated -treated” value (Day 5) was 0.01 mm and the “Paw thickness of treated leg (Avg.)” value (Day 5) was 2.16 mm. For the same molecule, the “Paw thickness of untreated leg (Avg.)” value (Day 5) was 2.17 mm, the “Percent change of weight per day (Av)” value (Day 5) was 92.17% and the “Percent change of weight per day (individual animal)” value (Day 5) was 91.58% and 93.06% and 92.79% and 94.86% and 89.64% and 91.08%. The “Δ clinical score untreated -treated, Avg. Delta” value (Day 5) was 0.00 points, the “Clinical score of treated leg (Avg.)” value (Day 6) was 0.00* points and the “Paw thickness Avg. Delta untreated -treated” value (Day 6) was 0.34*** mm. The “Paw thickness of treated leg (Avg.)” value (Day 6) was 2.17*** mm, the “Paw thickness of untreated leg (Avg.)” value (Day 6) was 2.51 mm and the “Percent change of weight per day (Av)” value (Day 6) was 92.02%. The “Percent change of weight per day (individual animal)” value (Day 6) was 93.56% and 91.67% and 92.31% and 91.1215% and 91.89% and 91.5493%, the “Clinical score of treated leg (Avg.)” value (Day 7) was 0.50* points and the “Paw thickness Avg. Delta untreated -treated” value (Day 7) was 0.77*** mm. For the same molecule, the “Paw thickness of treated leg (Avg.)” value (Day 7) was 2.23** mm, the “Paw thickness of untreated leg (Avg.)” value (Day 7) was 3.00 mm and the “Percent change of weight per day (Av)” value (Day 7) was 91.86%. For the same molecule, the “Percent change of weight per day (individual animal)” value (Day 7) was 92.57% and 89.81% and 93.75% and 91.59% and 91.44% and 92.02%, the “Clinical score of treated leg (Avg.)” value (Day 8) was 0.83 points and the “Paw thickness Avg. Delta untreated -treated” value (Day 8) was 1.04*** mm. The “Paw thickness of treated leg (Avg.)” value (Day 8) was 2.18** mm, the “Paw thickness of untreated leg (Avg.)” value (Day 8) was 3.22 mm and the “Percent change of weight per day (Av)” value (Day 8) was 90.62%. The “Percent change of weight per day (individual animal)” value (Day 8) was 92.08% and 88.89% and 94.23% and 87.85% and 90.99% and 89.67%, the “Clinical score of treated leg (Avg.)” value (Day 10) was 0.17* points and the “Paw thickness Avg. Delta untreated -treated” value (Day 10) was 1.27 mm. For the same molecule, the “Paw thickness of treated leg (Avg.)” value (Day 10) was 2.14** mm, the “Paw thickness of untreated leg (Avg.)” value (Day 10) was 3.41 mm and the “Percent change of weight per day (Av)” value (Day 10) was 91.54%. For the same molecule, the “Percent change of weight per day (individual animal)” value (Day 10) was 90.59% and 88.89% and 95.19% and 91.59% and 92.34% and 90.61%, the “Clinical score of treated leg (Avg.)” value (Day 12) was 0.67 points and the “Paw thickness Avg. Delta untreated -treated” value (Day 12) was 1.32 mm. For the same molecule, the “Paw thickness of treated leg (Avg.)” value (Day 12) was 2.17 mm, the “Paw thickness of untreated leg (Avg.)” value (Day 12) was 3.48 mm and the “Percent change of weight per day (Av)” value (Day 12) was 94.92%. For the same molecule, the “Percent change of weight per day (individual animal)” value (Day 12) was 95.54% and 93.98% and 98.08% and 92.99% and 95.05% and 93.9%, the “Δ clinical score untreated -treated, Avg. Delta” value (Day 12) was 2.67 points and the “Δ clinical score untreated -treated, Avg. Delta” value (Day 6, * p < 0.05 vs. Vehicle) was 0.83* points. For the same molecule, the “Δ clinical score untreated -treated, Avg. Delta” value (Day 7, * p < 0.05 vs. Vehicle) was 1.33* points, the “Δ clinical score untreated -treated, Avg. Delta” value (Day 8, * p < 0.05 vs. Vehicle) was 2.17* points and the “Δ clinical score untreated -treated, Avg. Delta” value (Day 10, * p < 0.05 vs. Vehicle) was 2.83* points. For the same molecule, the “reduction of arthritis score, treated vs untreated paw” value (10 mg/kg IA, day 12) was 79.9%, the “reduction of paw thickness, treated vs untreated paw” value (10 mg/kg IA, day 12) was 37.6% and the Weight per day, Baseline [1] was 20.6 g. It also gave a Weight per day, Day 3 [1] of 20.4 g, a Weight per day, Day 4 [1] of 19.9 g and a Weight per day, Day 5 [1] of 18.5 g. For the same molecule, the Weight per day, Day 6 [1] was 18.1 g, the Weight per day, Day 7 [1] was 18.9 g and the Weight per day, Day 8 [1] was 18.5 g. For the same molecule, the Weight per day, Day 10 [1] was 18.4 g, the Weight per day, Day 12 [1] was 19.1 g and the Weight per day, Baseline [2] was 21 g (2×) and 20.9 g and 21.5 g and 21.4 g and 19.4 g and 18.7 g. For the same molecule, the Weight per day, Day 3 [2] was 20.8 g and 20.6 g and 21.6 g and 20.9 g and 19.3 g and 18.8 g and 21 g, the Weight per day, Day 4 [2] was 21.1 g and 20.8 g and 20.9 g and 21.6 g and 17.4 g and 17.8 g and 19.6 g and the Weight per day, Day 5 [2] was 19.5 g and 18.7 g and 19.1 g and 20.2 g and 16.6 g and 16.8 g and 18.4 g. The Weight per day, Day 6 [2] was 19.1 g and 19 g and 18.6 g and 19.9 g and 15.6 g and 16.5 g and 18.1 g, the Weight per day, Day 7 [2] was 19.4 g and 19.3 g and 18.9 g and 20 g and 16 g and 19.9 g and 18.5 g and the Weight per day, Day 8 [2] was 19.3 g and 19.7 g and 18.9 g and 20.1 g and 16 g and 16.9 g and 18.5 g. The Weight per day, Day 10 [2] was 19.6 g and 19.5 g (2×) and 18.3 g and 16.2 g and 17.4 g and 18.6 g, the Weight per day, Day 12 [2] was 19.9 g and 20 g (2×) and 19.1 g and 16.9 g and 18.2 g and 19.3 g and the Weight per day, Baseline [3] was 20.4 g. The Weight per day, Day 3 [3] was 20.6 g and the Weight per day, Day 4 [3] was 20.3 g.
